Test results taken from patent US20250136578A1 (Kolm Therapeutics Inc., priority 2023, published 2025).

target: AR / CBP ternary complex (Homo sapiens, UniProt P10275+Q92793); test: Ternary complex formation assay (sandwich ELISA, AR capture, CBP antibody detection) in VCaP cell lysates; format: cell-based; details: treated 1.5 hours, rabbit CBP or p300 antibody detection, average, read-out: Average Ternary Complex
Procedure: Black MaxiSorp plates: coat with 50 μL of mouse 1/50 diluted AR antibody (Monoclonal Antibody (AR 441 from Thermo Fisher); diluted in phosphate buffered saline (PBS). Spin the liquid to the bottom of the wells, if necessary. Incubate overnight at 4° C. Next day, wash 3 times with 200 μL of TBST. Block with 200 μL of blocking buffer (5% BSA in TBST) at room temperature for 2 hours (BSA: A4503 or A2153 from Sigma). Wash plates 3 times with TBST. Plates are ready for lysates Preparation of dimerizer treated lysates
Culture cells in 96 wells at 50K VCaP cells/well for at least 3 days. Plate in 5% Omega charcoal stripped FBS in total volume of 200 uL. Treat with bifunctional for 1.5 hours by adding 1 μL of 200× stock in DMSO. Aspirate media/compound. Add and pipet-to-mix 70 μL of 1× AlphaLisa Lysis Buffer to each well (Perkin Elmer, AlphaLISA SureFire Ultra, diluted in water). Pipet up and down when adding lysis buffer to disrupt cells. Let lysis proceed for 30 min at 4° C.
Incubate for 1 hour at room temperature. Flick out the lysates. Wash 3 times with TBST. Add 75 μL of rabbit CBP or p300 antibody to each well (diluted 1:5000 in blocking buffer (5% BSA in TBST). CBP antibody: (D6C5) Rabbit mAb #7389; p300 antibody: (D8Z4E) Rabbit mAb #86377. Incubate overnight at 4° C. Wash 3 times with 300 uL TBST, each time on shaker for 5-10 min. Prepare goat anti-rabbit antibody conjugated to HRP (1/100K dilution in blocking buffer) Invitrogen Catalog number: 32260. Add 75 μL of HRP-conjugated goat anti-rabbit antibody. Incubate at room temperature for 1 hour. Flick out the HRP-antibody mixture. Wash 7-8 times with TBST, each time on shaker for 10 min. Later washes try to overflow the wells so that no residual HRP remains bound to the sides of the well. Prepare and add 75 uL/well of QuantaRed Enhance Chemifluorescent HRP Substrate solution. Immediately read fluorescence on BMG ClarioStar (ex: 570/em 585), and repeat the read in 5 minutes and 15 minutes.

AR / CBP ternary complex, sequence (P10275 whole entry): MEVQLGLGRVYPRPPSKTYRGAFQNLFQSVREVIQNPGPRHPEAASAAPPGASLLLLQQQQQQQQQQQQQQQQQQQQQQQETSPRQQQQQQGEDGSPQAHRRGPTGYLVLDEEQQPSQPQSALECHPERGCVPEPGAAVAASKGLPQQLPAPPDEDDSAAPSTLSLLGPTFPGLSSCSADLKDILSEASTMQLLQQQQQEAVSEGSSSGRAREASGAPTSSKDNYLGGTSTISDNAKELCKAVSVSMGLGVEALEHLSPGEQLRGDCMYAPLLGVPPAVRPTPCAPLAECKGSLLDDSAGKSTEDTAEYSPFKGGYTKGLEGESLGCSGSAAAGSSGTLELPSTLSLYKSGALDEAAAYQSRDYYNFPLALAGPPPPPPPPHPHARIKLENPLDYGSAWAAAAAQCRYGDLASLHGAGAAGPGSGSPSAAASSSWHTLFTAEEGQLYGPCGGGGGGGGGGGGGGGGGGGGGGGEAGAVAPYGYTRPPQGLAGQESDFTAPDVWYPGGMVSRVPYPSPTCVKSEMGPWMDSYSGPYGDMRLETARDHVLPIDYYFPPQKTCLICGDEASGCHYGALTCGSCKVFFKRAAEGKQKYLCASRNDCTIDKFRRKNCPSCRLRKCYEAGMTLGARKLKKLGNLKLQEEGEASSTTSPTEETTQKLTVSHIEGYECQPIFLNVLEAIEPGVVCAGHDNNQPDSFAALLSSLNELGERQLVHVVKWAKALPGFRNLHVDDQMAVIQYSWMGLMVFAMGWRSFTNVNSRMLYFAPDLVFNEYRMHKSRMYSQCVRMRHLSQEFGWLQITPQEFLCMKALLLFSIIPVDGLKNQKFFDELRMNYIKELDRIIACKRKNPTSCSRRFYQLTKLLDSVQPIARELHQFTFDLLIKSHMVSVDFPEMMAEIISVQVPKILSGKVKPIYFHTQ
AR / CBP ternary complex, sequence (Q92793 2-2442): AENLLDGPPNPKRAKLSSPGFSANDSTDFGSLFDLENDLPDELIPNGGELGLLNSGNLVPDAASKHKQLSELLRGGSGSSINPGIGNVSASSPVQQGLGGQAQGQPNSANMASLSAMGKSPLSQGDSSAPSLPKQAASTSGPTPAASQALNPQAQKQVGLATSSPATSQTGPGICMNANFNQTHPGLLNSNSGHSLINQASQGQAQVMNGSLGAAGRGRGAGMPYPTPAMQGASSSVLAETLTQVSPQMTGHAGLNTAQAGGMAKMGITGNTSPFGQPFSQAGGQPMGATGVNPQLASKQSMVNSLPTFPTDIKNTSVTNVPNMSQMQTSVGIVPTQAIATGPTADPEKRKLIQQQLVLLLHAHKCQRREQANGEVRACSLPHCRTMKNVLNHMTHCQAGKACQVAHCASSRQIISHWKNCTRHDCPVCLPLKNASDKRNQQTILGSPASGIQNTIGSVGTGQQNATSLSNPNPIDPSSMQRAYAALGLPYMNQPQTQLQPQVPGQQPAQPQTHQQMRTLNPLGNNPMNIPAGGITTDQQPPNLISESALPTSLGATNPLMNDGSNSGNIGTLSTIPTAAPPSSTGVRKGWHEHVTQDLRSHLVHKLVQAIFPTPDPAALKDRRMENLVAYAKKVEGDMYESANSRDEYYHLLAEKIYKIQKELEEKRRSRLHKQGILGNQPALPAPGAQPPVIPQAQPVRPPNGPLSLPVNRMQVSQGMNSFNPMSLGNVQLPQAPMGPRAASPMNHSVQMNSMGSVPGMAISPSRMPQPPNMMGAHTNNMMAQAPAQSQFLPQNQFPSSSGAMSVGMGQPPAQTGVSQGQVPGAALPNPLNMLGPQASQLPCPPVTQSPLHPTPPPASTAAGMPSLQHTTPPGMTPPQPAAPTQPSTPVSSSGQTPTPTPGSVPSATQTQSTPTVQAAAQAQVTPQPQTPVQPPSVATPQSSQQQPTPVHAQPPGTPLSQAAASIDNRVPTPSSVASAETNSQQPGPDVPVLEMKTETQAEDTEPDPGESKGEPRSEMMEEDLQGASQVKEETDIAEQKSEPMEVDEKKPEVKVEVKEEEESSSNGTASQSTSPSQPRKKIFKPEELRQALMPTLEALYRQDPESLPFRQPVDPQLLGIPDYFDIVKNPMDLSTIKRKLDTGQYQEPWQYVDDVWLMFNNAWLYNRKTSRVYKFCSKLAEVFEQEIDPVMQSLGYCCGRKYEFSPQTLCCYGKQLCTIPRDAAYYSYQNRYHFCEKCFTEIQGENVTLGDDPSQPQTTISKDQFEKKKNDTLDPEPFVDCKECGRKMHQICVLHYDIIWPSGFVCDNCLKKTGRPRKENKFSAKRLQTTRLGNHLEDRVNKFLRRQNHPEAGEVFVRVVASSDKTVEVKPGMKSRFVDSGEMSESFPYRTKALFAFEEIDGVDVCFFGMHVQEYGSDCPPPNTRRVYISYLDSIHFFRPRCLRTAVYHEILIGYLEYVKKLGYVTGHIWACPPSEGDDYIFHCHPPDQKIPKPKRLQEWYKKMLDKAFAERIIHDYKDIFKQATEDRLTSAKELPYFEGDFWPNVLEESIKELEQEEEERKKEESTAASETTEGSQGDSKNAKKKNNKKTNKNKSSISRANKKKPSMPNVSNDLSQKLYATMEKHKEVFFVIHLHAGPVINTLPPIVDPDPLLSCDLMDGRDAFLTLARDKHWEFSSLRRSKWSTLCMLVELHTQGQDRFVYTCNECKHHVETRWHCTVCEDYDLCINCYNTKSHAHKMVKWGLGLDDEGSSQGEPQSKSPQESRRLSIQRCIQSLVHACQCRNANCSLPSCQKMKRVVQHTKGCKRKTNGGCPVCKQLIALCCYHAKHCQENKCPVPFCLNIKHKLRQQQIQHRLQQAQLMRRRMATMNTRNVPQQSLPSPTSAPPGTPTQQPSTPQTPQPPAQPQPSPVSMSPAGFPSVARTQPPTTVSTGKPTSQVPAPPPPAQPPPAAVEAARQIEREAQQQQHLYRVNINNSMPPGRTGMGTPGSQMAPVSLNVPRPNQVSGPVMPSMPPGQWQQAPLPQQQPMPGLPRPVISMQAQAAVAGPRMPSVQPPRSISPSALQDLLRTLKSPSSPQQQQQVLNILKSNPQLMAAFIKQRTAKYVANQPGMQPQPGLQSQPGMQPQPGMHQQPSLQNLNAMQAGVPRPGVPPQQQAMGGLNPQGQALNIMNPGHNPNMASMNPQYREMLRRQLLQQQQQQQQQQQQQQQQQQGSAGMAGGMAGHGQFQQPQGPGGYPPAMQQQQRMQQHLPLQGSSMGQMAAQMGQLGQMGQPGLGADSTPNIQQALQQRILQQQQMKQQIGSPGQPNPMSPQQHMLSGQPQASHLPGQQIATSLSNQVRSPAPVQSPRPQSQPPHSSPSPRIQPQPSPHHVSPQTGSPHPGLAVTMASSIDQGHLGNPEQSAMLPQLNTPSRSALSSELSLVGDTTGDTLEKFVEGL

Going from `CC(=O)N1CCc2c(c(N3CCCc4cc(-c5cnn(C)c5)c(C(F)F)cc43)nn2C2CCN(C3CC4(CCN(c5ccc(C(=O)N[C@H]6CC[C@H](Oc7ccc(C#N)c(Cl)c7)CC6)nn5)C4)C3)CC2)C1` (stereo partly drawn) [Compound 228, 6-[2-[4-[5-acetyl-3-[7-(difluoromethyl)-6-(1-methylpyrazol-4-yl)-3,4-dihydro-2H-quinolin-1-yl]-6,7-dihydro-4H-pyrazolo[4,3-c]pyridin-1-yl]-1-piperidyl]-6-azaspiro [3.4]octan-6-yl]-N-[4-(3-chloro-4-cyano-phenoxy)cyclohexyl] pyridazine-3-carboxamide] to `CC(=O)N1CCc2c(c(N3CCCc4cc(-c5cnn(C)c5)c(C(F)F)cc43)nn2[C@H]2CC[C@]3(CCN(c4ccc(C(=O)N[C@H]5CC[C@H](Oc6ccc(C#N)c(Cl)c6)CC5)nn4)C3)CC2)C1` [Compound 264, 6-[8-[5-acetyl-3-[7-(difluoromethyl)-6-(1-methylpyrazol-4-yl)-3,4-dihydro-2H-quinolin-1-yl]-6,7-dihydro-4H-pyrazolo[4,3-c]pyridin-1-yl]-2-azaspiro[4.5]decan-2-yl]-N-[4-(3-chloro-4-cyano-phenoxy)cyclohexyl]pyridazine-3-carboxamide], the EC50 rises from less than 1 nM to greater than 100 nM.

First: CC(=O)N1CCc2c(c(N3CCCc4cc(-c5cscn5)c(C(F)F)cc43)nn2C2CCN([C@H]3CCCN(c4ccc(C(=O)N[C@H]5CC[C@H](Oc6ccc(C#N)c(Cl)c6)CC5)nn4)C3)CC2)C1 [Compound 260, 6-[(3S)-3-[4-[5-acetyl-3-[7-(difluoromethyl)-6-thiazol-4-yl-3,4-dihydro-2H-quinolin-1-yl]-6,7-dihydro-4H-pyrazolo[4,3-c]pyridin-1-yl]-1-piperidyl]-1-piperidyl]-N-[4-(3-chloro-4-cyano-phenoxy)cyclohexyl]pyridazine-3-carboxamide]
Second: CC(=O)N1CCc2c(c(N3CCCc4cc(-c5cnn(C)c5)c(C(F)F)cc43)nn2[C@H]2CC[C@]3(CCCN(c4ccc(C(=O)N[C@H]5CC[C@H](Oc6ccc(C#N)c(Cl)c6)CC5)nn4)C3)CC2)C1 [Compound 266]
The EC50 of the first is lower: 1 to 10 nM for the first, greater than 100 nM for the second. The first is the more potent here.

`CC(=O)N1CCc2c(c(N3CCCc4cc(-c5cnn(C)c5)c(C(F)F)cc43)nn2[C@H]2CC[C@@]3(CCN(c4ccc(C(=O)N[C@H]5CC[C@H](Oc6ccc(C#N)c(Cl)c6)CC5)nn4)C3)CC2)C1` [Compound 265, 6-[8-[5-acetyl-3-[7-(difluoromethyl)-6-(1-methylpyrazol-4-yl)-3,4-dihydro-2H-quinolin-1-yl]-6,7-dihydro-4H-pyrazolo[4,3-c]pyridin-1-yl]-2-azaspiro[4.5]decan-2-yl]-N-[4-(3-chloro-4-cyano-phenoxy)cyclohexyl]pyridazine-3-carboxamide] and `CC(=O)N1CCc2c(c(N3CCCc4cc(-c5cnn(C)c5)c(C(F)F)cc43)nn2[C@H]2CC[C@@]3(CCCN(C4CN(c5ccc(C(=O)N[C@H]6CC[C@H](Oc7ccc(C#N)c(Cl)c7)CC6)nn5)C4)C3)CC2)C1` [Compound 269, 6-[3-[9-[5-acetyl-3-[7-(difluoromethyl)-6-(1-methylpyrazol-4-yl)-3,4-dihydro-2H-quinolin-1-yl]-6,7-dihydro-4Hpyrazolo[4,3-c]pyridin-1-yl]-2-azaspiro[5.5]undecan-2-yl]azetidin-1-yl]-N-[4-(3-chloro-4-cyanophenoxy)cyclohexyl]pyridazine-3-carboxamide] cannot be ordered by EC50: less than 1 nM for the first, less than 1 nM for the second.

`CC(=O)N1CCc2c(c(N3CCCc4cc(-c5ccn(C)n5)c(C(F)F)cc43)nn2C2CCC3(CC2)CC(Oc2ccc(C(=O)N[C@H]4CC[C@H](Oc5ccc(C#N)c(Cl)c5)CC4)nn2)C3)C1` (stereo partly drawn) [Compound 275] and `CC(=O)N1CCc2c(c(N3CCCc4cc(-c5cnn(C)c5)c(C)cc43)nn2C2CCN(C3CCC4(CC3)CN(c3ccc(C(=O)N[C@H]5CC[C@H](Oc6ccc(C#N)c(Cl)c6)CC5)nn3)C4)CC2)C1` [Compound 295] cannot be ordered by EC50: less than 1 nM for the first, less than 1 nM for the second.

`CC(=O)N1CCc2c(c(N3CCCc4cc(C#N)c(C)cc43)nn2C2CCN(C[C@H]3[C@H](C)CN(c4ccc(C(=O)N[C@H]5CC[C@H](Oc6ccc(C#N)c(Cl)c6)CC5)nn4)C[C@@H]3C)CC2)C1` [Compound 285] and `CC(=O)N1CCc2c(c(N3CCCc4cc(-c5cnn(C)c5)c(C(F)F)cc43)nn2C2CCN(CC3C(C)CN(c4ccc(C(=O)N[C@H]5CC[C@H](Oc6ccc(C#N)c(C(F)(F)F)c6)CC5)nn4)CC3C)CC2)C1` (stereo partly drawn) [Compound 290, 6-[4-[[4-[5-acetyl-3-[7-(difluoromethyl)-6-(1-methylpyrazol-4-yl)-3,4-dihydro-2H-quinolin-1-yl]-6,7-dihydro-4H-pyrazolo[4,3-c]pyridin-1-yl]-1-piperidyl]methyl]-3,5-dimethyl-1-piperidyl]-N-[4-[4-cyano-3-(trifluoromethyl)phenoxy]cyclohexyl]pyridazine-3-carboxamide] cannot be ordered by EC50: less than 1 nM for the first, less than 1 nM for the second.

Going from `CC(=O)N1CCc2c(c(N3CCCc4cc(-c5cnn(C)c5)c(C)cc43)nn2C2CCN(CC3CCN(c4ccc(C(=O)N[C@H]5CC[C@H](Oc6ccc(C#N)c(C(F)(F)F)c6)CC5)nn4)CC3(C)C)CC2)C1` (stereo partly drawn) [Compound 294] to `CC(=O)N1CCc2c(c(N3CCCc4cc(-c5cnn(C)c5)c(C)cc43)nn2C2CCN(C3CCC4(CC3)CN(c3ccc(C(=O)N[C@H]5CC[C@H](Oc6ccc(C#N)c(C(F)(F)F)c6)CC5)nn3)C4)CC2)C1` [Compound 297], the EC50 rises from less than 1 nM to greater than 100 nM.

With `COc1cc(O[C@H]2CC[C@H](NC(=O)c3ccc(N4CC5(CCC(N6CCC(n7nc(N8CCCc9cc(-c%10cnn(C)c%10)c(C)cc98)c8c7CCN(C(C)=O)C8)CC6)CC5)C4)nn3)CC2)ccc1C#N` [Compound 296, 6-[7-[4-[5-acetyl-3-[7-methyl-6-(1-methylpyrazol-4-yl)-3,4-dihydro-2H-quinolin-1-yl]-6,7-dihydro-4H-pyrazolo[4,3-c]pyridin-1-yl]-1-piperidyl]-2-azaspiro [3.5]nonan-2-yl]-N-[4-(4-cyano-3-methoxy-phenoxy)cyclohexyl] pyridazine-3-carboxamide] the EC50 was less than 1 nM.

tested on: VCaP cells; test: VCaP growth inhibition assay (CTG); format: cell-based; details: Homo sapiens, 216 h, 30 pM R1881, 9 days
Procedure: VCaP cells (ATCC Cat #CRL-2876) are plated at 1×10^4 cells per well of a white plastic 96-well cluster plate (Thermo Scientific Nunc Cat #165306) in 100 uL phenol red-free DMEM (Gibco Cat #21063-029) media with 5% CSS (Omega Scientific Cat #FB-04). Cluster plates are returned to the incubator (37*C/5% CO2) for 72 hours prior to treatment. Just prior to treatment, 100 uL of phenol red-free DMEM/5% CSS and 60 pM R1881 (Sigma Cat #R0908-10 mg) was added to each well of the cluster plates (Final R1881 concentration=30 pM). Compounds (200X) were added to each well in a volume of 1 uL, with serial dilutions (1:5) from 20 uM to 2 pM (final concentrations in well are 100 nM to 10 fM). Cluster plates are returned to the incubator for 9 days.
After the 9-day treatment period, media was removed from the cluster plates by inversion and 100 uL room temperature CTG reagent (Promega Cat #G7573) is added to each well. The cluster plates are placed on a shaker and incubated at room temperature for 20 minutes. Following this shaking/incubation, cluster plates are read on a luminometer (BMG ClarioStar). IC50 values are obtained by graphing the RLU data vs. compound concentration with nonlinear regression 4-parameter logistic curves (GraphPad Prism).

`CC(=O)N1CCc2c(c(-c3cccc4cc(-c5cnn(CC6CCN(c7ccc(C(=O)N[C@H]8CC[C@H](Oc9ccc(C#N)c(Cl)c9)CC8)nn7)CC6)c5)ncc34)nn2C)C1` [Compound 7, 6-[4-[[4-[8-(5-acetyl-1-methyl-6,7-dihydro-4H-pyrazolo[4,3-c]pyridin-3-yl)-3-isoquinolyl]pyrazol-1-yl]methyl]-1-piperidyl]-N-[4-(3-chloro-4-cyano-phenoxy)cyclohexyl]pyridazine-3-carboxamide] and `CC(=O)N1CCc2c(c(Nc3ccc(-c4cnn(C)c4)cc3F)nn2C2CCN(CCC3CCN(c4ncc(C(=O)N[C@H]5CC[C@H](Oc6ccc(C#N)c(Cl)c6)CC5)cn4)CC3)CC2)C1` [Compound 10, 2-[4-[2-[4-[5-acetyl-3-[2-fluoro-4-(1-methylpyrazol-4-yl)anilino]-6,7-dihydro-4H-pyrazolo[4,3-c]pyridin-1-yl]-1-piperidyl]ethyl]-1-piperidyl]-N-[4-(3-chloro-4-cyano-phenoxy)cyclohexyl]pyrimidine-5-carboxamide] cannot be ordered by IC50: no more than 0.1 nM for the first, 0.1 to 1 nM for the second.
